The values that follow come from patent EP1401829B1, “NOVEL HETEROCYCLIC ANTIBACTERIAL COMPOUNDS” (Microbiotix, Inc., priority 2001, dated 2002).

Structures are written as SMILES. ≈ marks a conversion by molar mass, not a printed value. Where two headings read alike, the source gives them in different places.

The test system of one assay is S. aureus. The assay is described as follows: Minimal Inhibitory Concentration (MIC) determination, 96 well plates. The assay is classed as cell-based, Staphylococcus aureus. As to conditions: Staphylococcus aureus, read-out: MIC (µg/ml) S. aureus. In a few lines: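 Cultures seeded at approximately 1x10^5 CFU/ml in Heart-Brain Infusion medium were exposed to five compound concentrations, five data points each, for 16 to 18 hours at 37°C. Growth at OD 600 nm was expressed as percent of control, and MIC values are given in µg/ml.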

The next assay has as its target T1, B. subtilis Pol IIIC (Bacillus subtilis, UniProt P13267).
T1 construct: made in house
Nature of the assay: Polymerase IIIC (Pol IIIC) assay, determination of Ki values. It counts as biochemical. To be noted: Ki (µM) Pol IIIC, assay in absence of dGTP or dATP; Ki is the concentration that reduces control polymerase IIIC activity by 50 percent. The method, boiled down:
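Isolated B. subtilis Pol IIIC (0.025–0.06 units) run 10 min at 30°C in 30 mM Tris pH 7.5, 10 mM Mg acetate, 4 mM DTT, 20% glycerol. Substrates were 0.4 mg/ml activated calf thymus DNA, 25 µM dNTPs and 10 µM [3H]dTTP, with dGTP or dATP omitted per compound structure.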

For a further assay, the system named is MSSA108. The assay is described as follows: MIC against clinically relevant strains. As to conditions: Staphylococcus aureus; methicillin sensitive S. aureus strain. It counts as cell-based. The method, then:
The following methods were used to characterize representative compounds. Minimal Inhibitory Concentration (MIC) determinations. MIC values were determined in 96 well plates, with bacterial growth monitored at OD 600 nm in 200µl following an initial bacterial seeding at approximately 1x10^5 colony forming units (CFU)/ml. Each drug is evaluated at five concentrations, with five data points at each dilution. MIC values (µg/ml) were determined against actively growing cultures in Heart-Brain Infusion (HBI) medium. Cell growth in cultures supplemented with a test compound was calculated as a percent of control at OD 600 nm after 16 to 18 hours at 37°C. This plate format conserves test compound and provides precise, quantitative data with low standard deviation determinations. Polymerase IIIC (Pol IIIC) assay. DNA polymerase activity (or inhibition thereof) was measured in a 96-well plate format. B. subtilis Pol IIIC was isolated as described by Hammond and Brown (Protein Expr. Purif., 3: 65-70 (1992)). Each 25 µl assay contained 30 mM Tris, pH 7.5, 10 mM magnesium acetate, 4 mM dithiothreitol, 20% glycerol, with 25 µM dATP, dCTP, dGTP and 10 µM dTTP (^3H-labelled at 1.44 Ci/mmole) and 0.4 mg/ml activated calf thymus DNA as substrates, as described previously (see Barnes et al, op. cit). Assays were initiated by the addition of 0.025 to 0.06 units of enzyme 1 unit is the amount required to incorporate 250 pmoles of [^3H] dTMP in a standard assay), incubated for 10 minutes at 30°C and terminated by the addition of 200 µl of cold 10% trichloroacetic acid (TCA),10 mM sodium pyrophosphate. Precipitated labeled DNA was collected on glass fiber filter plates, washed, dried, and counted in a liquid scintillation counter. Determination of Ki values. DNA polymerase activity was measured in a 96-well plate format in the absence of dGTP or dATP, depending on the structure of the test compound. Each 25 µl assay contained 30 mM Tris, pH 7.5, 10 mM magnesium acetate, 4 mM dithiothreitol, 20% glycerol, with 25 µM dATP, dCTP, and 10 µM dTTP (^3H-labelled at 1.44 Ci/mmole) and 0.4 mg/ml activated calf thymus DNA as substrates, as described previously. To each well were added 2 µl of compound solution to give final concentrations ranging from 20 - 0.027 µg/ml in the assay. Assays were initiated by the addition of 0.025 to 0.06 units of enzyme (1 unit is the amount required to incorporate 250 pmoles of [^3H] dTMP in a standard assay), incubated for 10 minutes at 30 °C and terminated by the addition of 200 µl of cold 10% trichloroacetic acid, 10 mM sodium pyrophosphate. Precipitated labeled DNA was collected on glass fiber filter plates, washed, dried, and counted in a liquid scintillation counter. Ki is the concentration of test compound that reduces the control polymerase IIIC activity by 50 percent.
Compounds were also tested for antibacterial activity against certain clinically relevant strains, e.g., methicillin sensitive (MSSA) and methicillin resistant (MRSA) strains of Staphylococcus aureus.

Another assay has as its system E. fecalis. The assay is described as follows: Minimal Inhibitory Concentration (MIC) determination, 96 well plates. As to conditions: Enterococcus; HBI medium, 16 to 18 hours at 37°C; read-out: MIC (µg/ml) E. fecalis. The assay is classed as cell-based, Enterococcus fecalis. The method, boiled down: (§1)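 Broth growth in Heart-Brain Infusion medium, seeded at about 1x10^5 CFU/ml, 16 to 18 hours at 37°C. Growth read at OD 600 nm as percent of untreated control; five concentrations per drug, five data points each, MIC reported in µg/ml.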

For another assay, the system named is B. subtilis. Described as above. As to conditions: Bacillus subtilis; HBI medium, 16 to 18 hours at 37°C; read-out: MIC (µg/ml) B. subtilis. The assay is classed as cell-based, Bacillus subtilis. The method, boiled down:
as §1

Where [1] appears, read: HBI medium, 16 to 18 hours at 37°C.

T1 sequence (P13267 whole entry): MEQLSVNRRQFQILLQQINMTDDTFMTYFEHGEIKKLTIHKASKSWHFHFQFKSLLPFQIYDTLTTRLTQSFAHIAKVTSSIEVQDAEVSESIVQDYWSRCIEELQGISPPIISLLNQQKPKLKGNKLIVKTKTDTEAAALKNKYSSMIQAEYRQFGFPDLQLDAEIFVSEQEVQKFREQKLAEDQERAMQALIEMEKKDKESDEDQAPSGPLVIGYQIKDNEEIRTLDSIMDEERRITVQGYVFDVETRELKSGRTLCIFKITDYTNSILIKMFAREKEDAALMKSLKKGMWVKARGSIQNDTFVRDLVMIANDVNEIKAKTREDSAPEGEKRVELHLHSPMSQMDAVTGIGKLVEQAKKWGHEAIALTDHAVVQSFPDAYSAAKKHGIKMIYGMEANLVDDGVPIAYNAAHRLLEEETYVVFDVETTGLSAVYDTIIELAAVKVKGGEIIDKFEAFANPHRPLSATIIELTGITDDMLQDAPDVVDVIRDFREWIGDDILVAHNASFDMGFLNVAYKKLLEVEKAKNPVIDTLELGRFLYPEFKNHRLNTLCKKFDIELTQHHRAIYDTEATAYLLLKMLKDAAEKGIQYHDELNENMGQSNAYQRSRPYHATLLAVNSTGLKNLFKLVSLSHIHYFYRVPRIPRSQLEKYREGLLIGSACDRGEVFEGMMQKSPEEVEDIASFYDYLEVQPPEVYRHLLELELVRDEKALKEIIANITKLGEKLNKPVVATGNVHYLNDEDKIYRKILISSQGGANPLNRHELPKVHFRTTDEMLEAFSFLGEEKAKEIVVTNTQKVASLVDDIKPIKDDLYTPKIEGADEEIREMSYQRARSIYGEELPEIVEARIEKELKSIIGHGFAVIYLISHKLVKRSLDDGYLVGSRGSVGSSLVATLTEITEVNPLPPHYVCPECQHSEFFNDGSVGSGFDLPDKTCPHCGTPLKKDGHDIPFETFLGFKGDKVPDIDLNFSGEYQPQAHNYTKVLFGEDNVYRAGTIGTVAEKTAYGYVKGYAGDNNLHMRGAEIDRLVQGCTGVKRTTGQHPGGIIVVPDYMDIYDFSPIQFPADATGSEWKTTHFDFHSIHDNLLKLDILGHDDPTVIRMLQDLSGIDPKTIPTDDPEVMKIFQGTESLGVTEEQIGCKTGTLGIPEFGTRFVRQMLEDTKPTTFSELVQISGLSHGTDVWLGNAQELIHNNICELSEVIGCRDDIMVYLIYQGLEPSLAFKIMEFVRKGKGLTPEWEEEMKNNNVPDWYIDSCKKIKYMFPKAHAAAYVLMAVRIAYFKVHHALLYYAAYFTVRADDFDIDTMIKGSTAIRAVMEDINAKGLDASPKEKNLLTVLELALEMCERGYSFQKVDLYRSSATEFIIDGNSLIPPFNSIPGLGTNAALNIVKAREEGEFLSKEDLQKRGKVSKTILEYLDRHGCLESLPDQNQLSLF

The Ki is the dissociation constant of the complex between target and ligand, obtained from inhibition or displacement. High values mean weaker binding, low ones tighter binding. Take `CCc1cc(Nc2cc(=O)n(CCCCN3CCN(c4cc5c(cc4F)c(=O)c(C(=O)O)cn5C4CC4)CC3)c(=O)[nH]2)ccc1C` [Compound 2, 3-{4-[1-(1-cyclopropyl-3-carboxy-4-oxo-6-fluoro-7-quinolyl)-4-piperazinyl]butyl}-6-(3-ethyl-4-methylanilino)uracil]: the MIC in the assay with S. aureus (setting [1]) was found to be 0.625 µg/mL (≈ 0.991 µM); with S. aureus (table of MSSA/MRSA strains), 0.625 µg/mL (≈ 0.991 µM); with MSSA108, 0.313 mg/L (≈ 0.496 µM); with E. fecalis, 1.25 µg/mL (≈ 1.98 µM); with B. subtilis it was 0.156 µg/mL (≈ 0.247 µM). The compound also showed a Ki at B. subtilis Pol IIIC of 0.024 µM.

For the compound `CCc1cc(Nc2cc(=O)n(CCCCN3CCN(c4cc5c(cc4F)c(=O)c(C(=O)O)cn5C4CC4)CC3)c(=O)[nH]2)ccc1C.CS(=O)(=O)O` [Compound 10, 3-{4-[1-(1-cyclopropyl-3-carboxy-4-oxo-6-fluoro-7-quinolyl)-4-piperazinyl]butyl}-6-(3-ethyl-4-methylanilino)uracil methanesulfonate], the MIC worked out at 0.625 µg/mL in the assay on S. aureus (setting [1]); 0.625 µg/mL with S. aureus (table of MSSA/MRSA strains); 0.625 mg/L in the assay with MSSA108; 1.25 µg/mL in the assay on E. fecalis; 0.313 µg/mL in the assay with B. subtilis. Further, the Ki at B. subtilis Pol IIIC worked out at 0.018 µM.

On to `CCc1cc(Nc2cc(=O)n(CCCCN3CCN(c4c(F)cc5c(=O)c(C(=O)O)cn(C6CC6)c5c4F)CC3C)c(=O)[nH]2)ccc1C` (centres unmarked) [Compound 70, 3-{4-[1-(1-cyclopropyl-3-carboxy-4-oxo-6,8-difluoro-7-quinolyl)-3-methyl-4-piperazinyl]butyl}-6-(3-ethyl-4-methylanilino)uracil], for which the MIC in the assay with S. aureus (setting [1]) came out at 0.313 µg/mL (≈ 0.472 µM); in the assay with S. aureus (table of MSSA/MRSA strains), 0.39 µg/mL (≈ 0.588 µM); in the assay on E. fecalis it was 0.95 µg/mL (≈ 1.43 µM); in the assay on B. subtilis it was 0.156 µg/mL (≈ 0.235 µM). This compound gave an inhibition constant Ki on B. subtilis Pol IIIC of 0.019 µM.
